PubChem BioAssay (NCI)
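A five-concentration, 48-hour dose response in 96-well plates underlies each endpoint, interpolated linearly between surrounding concentrations. The concentration for full growth arrest is given as TGI.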

Tests used:
Test in all cases: inhibition of tumour cell growth, NCI panel, 48 h
A549 NSCLC = tested on: A549 NSCLC
DU-145 prostate = tested on: DU-145 prostate
HCC-2998 colon = tested on: HCC-2998 colon
HCT-15 colon = tested on: HCT-15 colon
HOP-62 NSCLC = tested on: HOP-62 NSCLC
K-562 leukemia = tested on: K-562 leukemia
M14 melanoma = tested on: M14 melanoma
MCF7 breast = tested on: MCF7 breast
MDA-N = tested on: MDA-N
NCI/ADR-RES ovarian = tested on: NCI/ADR-RES ovarian
PC-3 prostate = tested on: PC-3 prostate
SF-295 CNS = tested on: SF-295 CNS
SK-MEL-5 melanoma = tested on: SK-MEL-5 melanoma
SN12C renal = tested on: SN12C renal
T-47D breast = tested on: T-47D breast

| Structure (SMILES) | TGI (A549 NSCLC) [µM] | TGI (DU-145 prostate) [µM] | TGI (HCC-2998 colon) [µM] | TGI (HCT-15 colon) [µM] | TGI (HOP-62 NSCLC) [µM] | TGI (K-562 leukemia) [µM] | TGI (M14 melanoma) [µM] | TGI (MCF7 breast) [µM] | TGI (MDA-N) [µM] | TGI (NCI/ADR-RES ovarian) [µM] | TGI (PC-3 prostate) [µM] | TGI (SF-295 CNS) [µM] | TGI (SK-MEL-5 melanoma) [µM] | TGI (SN12C renal) [µM] | TGI (T-47D breast) [µM] |
| --- | --- | --- | --- | --- | --- | --- | --- | --- | --- | --- | --- | --- | --- | --- | --- |
| CCSc1c2cc(OC)ccc2nc2ccc(OC)cc12 | > 100 | > 72.5 | 25.5 | > 100 | 53.9 | > 44.1 | 33.3 | > 100 | 21.7 | > 69.7 | > 56 | 60.4 | 30.3 | 50.9 | > 69.7 |
| COc1cccc(C2c3cc4c(cc3OC(N3CCCC3)C2c2ccccc2)OCO4)c1O (stereo not given) | 61.4 | 90.5 | 23.9 | 37.3 | 47.6 | 42.6 | 25.4 | 32.6 | 24.6 | 67.2 | 27 | 30.3 | 22.6 | 31 | > 100 |
| Cc1ccccc1-n1c(=O)nc2n(-c3ccc(C(C)(C)C)cc3)c3ccccc3cc-2c1=O | > 100 | 77.1 | 32.4 | 32.8 | 39.7 | > 100 | 32.4 | 59.9 | 82.4 | 40.6 | 45.6 | 53.1 | 28.5 | 38.1 | > 100 |
| CC1(c2cccc(C(F)(F)F)c2)CC(c2cccc(C(F)(F)F)c2)=C(C#N)C(=C(C#N)C#N)N1 (stereo not given) | 39.9 | 31 | 31.8 | 33.1 | 32.7 | 34.2 | 37.4 | 34.9 | 33.6 | 43 | 34.7 | 31 | 29 | 32.8 | 41.7 |
| C=C(Cl)C(Cl)(CBr)CCCC(C)C (stereo not given) | 54.8 | 23.7 | 34.1 | > 85.4 | 27 | > 100 | > 100 | 28.5 | 97.1 | > 80.4 | 27.5 | 30 | > 100 | > 100 | > 41.4 |
| C[C@]12CC/C(=N\OCCN3CCCC3)C=C1CCC1C2CC[C@@]2(C)C1CC[C@]2(C)O (stereo not given in full) | 42.5 | 39.5 | 24.3 | 15 | 50 | 14.2 | 37.1 | > 100 | 6.33 | 15.4 | 71.7 | 12.3 | 29.9 | 21.3 | 64 |
| CC1CCC2C(C(=O)O[C@H]3C4C=CO[C@@H](OC5OC(CO)C(O)C(O)C5O)C4[C@@]4(CO)O[C@@H]34)=CO[C@@H](OC3OC(CO)C(O)C(O)C3O)C12 (stereo not given in full) | > 10 | > 10 | > 10 | > 10 | > 10 | > 10 | > 10 | > 10 | > 10 | > 10 | > 10 | > 10 | > 10 | > 10 | > 10 |
| CN(C)Cc1cc(C(=O)/C=C/c2ccc(Cl)cc2Cl)cc(CN(C)C)c1O | 11.9 | 16.7 | 20.2 | 14.6 | 12.9 | 5.29 | 13.3 | 15.3 | 5.92 | 5.7 | 6.19 | 14 | 5.66 | 6.96 | 22.1 |
| NNC(=O)c1cc(Cl)ccc1NC(=O)C12CC3CC(CC(C3)C1)C2 | 48.2 | > 100 | 65 | > 100 | > 100 | > 100 | 31.8 | > 100 | 70.5 | > 100 | > 100 | > 100 | 76.5 | 62.2 | > 100 |
| O=C(N/N=C\c1ccc([N+](=O)[O-])cc1)Nc1ccc2ccccc2c1 | > 100 | > 100 | 62.9 | > 100 | 51.2 | > 100 | > 100 | > 100 | > 100 | > 100 | > 100 | > 100 | > 100 | > 100 | > 100 |
| Cc1cc(NS(=O)(=O)c2ccc(NC(=O)c3ccc4nc5ccccc5c(Nc5ccc(S(N)(=O)=O)cc5)c4c3)cc2)no1 | 66.3 | > 100 | > 100 | 41.3 | > 100 | 44.6 | > 100 | 37.1 | 66 | > 100 | > 100 | > 100 | 41 | 81.5 | 71.3 |
| ON[C@@H]1C=C[C@H](n2cnc3c(NC4CC4)ncnc32)C1 | > 100 | > 100 | > 100 | > 100 | > 100 | > 100 | > 100 | > 100 | > 100 | > 100 | > 100 | > 100 | > 100 | > 100 | > 100 |
| CC1=NN(c2ccccc2Cl)C2(C1)C(Cl)C(=O)N2c1nc2ccccc2s1 (stereo not given) | > 100 | > 100 | > 100 | > 100 | > 100 | > 100 | > 100 | > 100 | > 100 | > 100 | > 100 | > 100 | > 100 | > 100 | > 100 |
| Cc1ccc2c(n1)C(=O)c1cc(C)c(C)cc1C2=O | > 100 | > 100 | > 100 | > 100 | > 100 | > 100 | > 100 | > 100 | > 100 | > 100 | > 100 | > 100 | 79.1 | > 100 | > 100 |
| CCOC(=O)c1sc2c(c1OC(=O)c1ccco1)c(=O)n(-c1ccccc1)c(=S)n2-c1ccccc1 | > 100 | > 100 | > 100 | > 100 | > 100 | > 100 | > 100 | > 100 | > 100 | 57 | 50 | > 100 | 32.1 | 84.4 | > 100 |
| c1ccc([P+](Cc2ccc(C[P+](c3ccccc3)(c3ccccc3)c3ccccc3)s2)(c2ccccc2)c2ccccc2)cc1 | > 100 | > 100 | > 100 | > 100 | > 100 | > 100 | > 100 | > 100 | > 100 | > 100 | > 100 | > 100 | > 100 | > 100 | > 100 |
| CCc1cn(C2CC(CO)C(CO)S2)c(=O)[nH]c1=O (stereo not given) | > 100 | > 100 | > 100 | > 100 | > 100 | > 100 | > 100 | > 100 | > 100 | > 100 | > 100 | > 100 | > 100 | > 100 | > 100 |
| NC(N)=NS(=O)(=O)c1ccc(NCc2cccc3c(=O)c4ccc(Cl)cc4oc23)cc1 | > 25 | 17.3 | > 25 | > 20 | > 18.9 | > 25 | > 16.3 | > 25 | > 19.1 | > 14 | > 14 | > 14.9 | > 16.5 | > 14.2 | > 23.7 |
| CCN1C(c2ccccc2)=CC(c2ccccc2)(C(Cl)(Cl)Cl)C=C1c1ccccc1 | > 100 | > 100 | 24.9 | > 100 | > 100 | > 100 | 26.4 | > 100 | > 100 | > 100 | > 100 | > 100 | 4.46 | > 100 | 2.29 |
